Reference: ChEMBL document CHEMBL5512656, “Tetrazole derivatives in the management of neurological disorders: Recent advances on synthesis and pharmacological aspects” (Eur J Med Chem, 2024)

Tests used:
Rattus norvegicus [1] = test: Anticonvulsant activity in po dosed scPTZ induced Albino rat seizure model measured after 4 hrs; type: functional
Rattus norvegicus [2] = test: Anticonvulsant activity in po dosed MES induced Albino rat seizure model measured after 4 hrs; type: functional
Acetylcholinesterase [3] = biological target: T1, Acetylcholinesterase (Electrophorus electricus, UniProt O42275); test: Inhibition of electric eel AChE using acetylthiocholine iodide as substrate incubated for 30 mins by Ellman's method
T1 sequence (O42275 whole entry): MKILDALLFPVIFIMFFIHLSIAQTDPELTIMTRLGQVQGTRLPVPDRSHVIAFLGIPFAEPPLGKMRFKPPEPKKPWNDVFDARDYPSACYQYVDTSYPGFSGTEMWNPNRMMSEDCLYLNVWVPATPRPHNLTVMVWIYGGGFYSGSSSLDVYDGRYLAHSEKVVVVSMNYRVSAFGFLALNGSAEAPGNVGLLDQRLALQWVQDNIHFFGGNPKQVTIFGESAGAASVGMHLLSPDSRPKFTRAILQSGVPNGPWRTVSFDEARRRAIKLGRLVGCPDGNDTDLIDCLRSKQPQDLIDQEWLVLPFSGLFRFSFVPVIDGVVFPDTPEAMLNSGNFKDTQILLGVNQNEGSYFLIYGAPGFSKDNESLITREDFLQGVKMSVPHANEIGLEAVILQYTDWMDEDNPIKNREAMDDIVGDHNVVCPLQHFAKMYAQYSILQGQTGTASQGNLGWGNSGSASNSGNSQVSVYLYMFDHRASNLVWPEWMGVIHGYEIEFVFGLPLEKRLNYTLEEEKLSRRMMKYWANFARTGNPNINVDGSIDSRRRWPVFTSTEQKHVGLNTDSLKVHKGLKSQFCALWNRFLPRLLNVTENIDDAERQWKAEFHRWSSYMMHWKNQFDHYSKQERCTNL

[4] = Neurotoxicity in ip dosed mouse by rotarod test; type: toxicity, organism-based; settings: in vivo
Mus musculus [5] = test: Anticonvulsant activity in ip dosed MES induced mouse seizure model measured after 0.5 and 4 hrs; type: functional
Acetylcholinesterase [6] = biological target: T1, Acetylcholinesterase; test: Inhibition of electric eel AChE using acetylthiocholine iodide as substrate preincubated for 15 mins followed by substrate addition and measured after 30 mins by Ellman's method
Mus musculus [7] = test: Anticonvulsant activity in ip dosed scPTZ induced Kunming mouse seizure model measured for 30 mins; type: functional; settings: 0.5 h
Mus musculus [8] = test: Antidepressant activity in Kunming mouse assessed as reduction in duration of immobility time at 40 mg/kg, ip by forced swim test; type: functional
Mus musculus [9] = test: Antidepressant activity in Kunming mouse assessed as reduction in duration of immobility time at 50 mg/kg, ip by forced swim test; type: functional
Mus musculus [10] = test: Antidepressant activity in Kunming mouse assessed as reduction in duration of immobility time at 30 mg/kg, ip by forced swim test; type: functional
Mus musculus [11] = test: Anticonvulsant activity in po dosed MES induced Kunming mouse seizure model; type: functional
[12] = Cytotoxicity against mouse NIH/3T3 cells incubated for 24 hrs by MTT assay
Mus musculus [13] = test: Anticonvulsant activity in ip dosed MES induced Kunming mouse seizure model; type: functional
Mus musculus [14] = test: Anticonvulsant activity in ip dosed scPTZ induced Kunming mouse seizure model; type: functional
Cholinesterase = Cholinesterase (Equus caballus, UniProt P81908); test: Inhibition of equine serum BChE using butyrylthiocholine chloride as substrate preincubated for 10 mins followed by substrate addition and measured after 15 mins by Ellman's method
Chain of Cholinesterase (P81908 whole entry): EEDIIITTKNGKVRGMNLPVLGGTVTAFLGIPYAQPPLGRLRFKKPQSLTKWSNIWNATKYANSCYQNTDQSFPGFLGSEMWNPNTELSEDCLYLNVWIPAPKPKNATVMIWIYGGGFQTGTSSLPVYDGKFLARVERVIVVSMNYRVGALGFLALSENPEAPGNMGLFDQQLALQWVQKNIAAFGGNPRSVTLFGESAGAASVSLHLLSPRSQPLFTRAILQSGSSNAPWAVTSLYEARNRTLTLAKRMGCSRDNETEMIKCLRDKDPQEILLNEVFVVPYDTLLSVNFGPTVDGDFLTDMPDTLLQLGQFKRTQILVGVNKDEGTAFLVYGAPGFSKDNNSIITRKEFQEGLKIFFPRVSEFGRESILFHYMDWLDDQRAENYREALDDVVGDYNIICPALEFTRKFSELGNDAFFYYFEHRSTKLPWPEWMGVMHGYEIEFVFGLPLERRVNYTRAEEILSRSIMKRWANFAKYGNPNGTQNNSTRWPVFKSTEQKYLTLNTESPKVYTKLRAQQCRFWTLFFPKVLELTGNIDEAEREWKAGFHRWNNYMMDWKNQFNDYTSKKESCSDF

Acetylcholinesterase [15] = biological target: T1, Acetylcholinesterase; test: Inhibition of electric eel AChE using acetylthiocholine iodide as substrate preincubated for 10 mins followed by substrate addition and measured after 15 mins by Ellman's method
[16] = Inhibition of 5-HT uptake in HEK293 cells transfected with human SERT at 1 uM by liquid scintillation counting analysis; type: functional
[17] = Inhibition of NE uptake in HEK293 cells transfected with human NET at 1 uM by liquid scintillation counting analysis; type: functional
[18] = Inhibition of DA uptake in HEK293 cells transfected with human DAT by liquid scintillation counting analysis; type: functional, cell-based
[19] = Inhibition of NE uptake in HEK293 cells transfected with human NET by liquid scintillation counting analysis; type: functional, cell-based
[20] = Inhibition of 5-HT uptake in HEK293 cells transfected with human SERT by liquid scintillation counting analysis; type: functional, cell-based
[21] = Inhibition of DA uptake in HEK293 cells transfected with human DAT at 1 uM by liquid scintillation counting analysis; type: functional
[22] = Protection index, ratio of TD50 for neurotoxicity in ip dosed Kunming mouse to ED50 for anticonvulsant activity in ip dosed Kunming mouse; type: toxicity, organism-based; settings: in vivo, read-out: PI
Mus musculus [23] = test: Anticonvulsant activity in ip dosed MES induced Kunming mouse seizure model measured after 0.5, 1, 2, and 4 hrs intervals; type: functional
[24] = Neurotoxicity in ip dosed Kunming mouse by rotarod test; type: toxicity, organism-based; settings: in vivo
[25] = biological target: Acetylcholinesterase (Electrophorus electricus) (UniProt O42275); test: Inhibition of electric eel AChE using acetylthiocholine iodide as substrate preincubated for 15 mins followed by substrate addition and measured after 30 mins by Ellman's method relative to control; settings: time 45.0 min
Chain of Acetylcholinesterase (Electrophorus electricus) (O42275 24-633 limits assumed): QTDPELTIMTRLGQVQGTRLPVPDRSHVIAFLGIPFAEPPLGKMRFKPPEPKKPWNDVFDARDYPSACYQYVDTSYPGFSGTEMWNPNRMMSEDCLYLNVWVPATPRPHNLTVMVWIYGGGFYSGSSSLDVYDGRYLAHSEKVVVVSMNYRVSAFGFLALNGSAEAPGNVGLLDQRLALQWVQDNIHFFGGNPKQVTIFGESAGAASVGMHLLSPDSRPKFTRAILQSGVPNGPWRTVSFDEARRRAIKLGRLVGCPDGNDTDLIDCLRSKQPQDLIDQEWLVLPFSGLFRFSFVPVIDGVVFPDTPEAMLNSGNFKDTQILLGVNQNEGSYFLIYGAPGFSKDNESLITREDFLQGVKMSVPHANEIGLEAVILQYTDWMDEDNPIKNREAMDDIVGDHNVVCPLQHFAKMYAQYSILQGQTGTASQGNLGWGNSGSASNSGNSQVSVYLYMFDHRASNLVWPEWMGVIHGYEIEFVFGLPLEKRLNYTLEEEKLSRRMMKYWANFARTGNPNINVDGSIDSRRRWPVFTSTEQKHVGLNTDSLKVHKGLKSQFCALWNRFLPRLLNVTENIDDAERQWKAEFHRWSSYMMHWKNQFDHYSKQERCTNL

[26] = biological target: Cholinesterase (Equus caballus) (UniProt P81908); test: Inhibition of equine serum BChE using butyrylthiocholine iodide as substrate preincubated for 15 mins followed by substrate addition and measured after 30 mins by Ellman's method relative to control; settings: time 45.0 min
Chain of Cholinesterase (Equus caballus) (P81908 whole entry): as the sequence (P81908 whole entry) above

Mus musculus [27] = test: Anticonvulsant activity in ip dosed scPTZ induced Kunming mouse seizure model measured after 30 mins; type: functional; settings: 0.5 h
[28] = Neurotoxicity in ip dosed Kunming mouse after 15 mins by rotarod test; type: toxicity, organism-based; settings: in vivo

## O=C1NC(=O)C(c2ccccc2)(c2ccccc2)N1 [PHENYTOIN]
Rattus norvegicus [1]
  ED50: > 500 mg/kg
Rattus norvegicus [2]
  ED50: 28.1 mg/kg

## Cc1ccccc1-n1nnnc1S[C@H]1Cc2ccccc2C1=O
Acetylcholinesterase [3]
  IC50: 7560 nM

## Cc1ccccc1-c1nnnn1Cc1cccc(F)c1
[4]
  TD50: 450 mg/kg
Mus musculus [5]
  ED50: 39.9 mg/kg

## O=C(CCCSc1nnnn1-c1ccccc1)N/N=C/c1cccc([N+](=O)[O-])c1
Acetylcholinesterase [6]
  IC50: 42500 nM

## O=C1c2ccccc2C[C@@H]1Sc1nnnn1-c1ccc(F)cc1
Acetylcholinesterase [3]
  IC50: 3040 nM

## CCC1(C)CC(=O)NC1=O (configuration not stated) [ETHOSUXIMIDE]
Rattus norvegicus [1]
  ED50: 167 mg/kg
Rattus norvegicus [2]
  ED50: > 500 mg/kg
Mus musculus [7]
  ED50: 106 mg/kg

## CNCCC(Oc1ccc(C(F)(F)F)cc1)c1ccccc1 (configuration not stated) [FLUOXETINE]
Mus musculus [8]
  Time: 54.21 s
Mus musculus [9]
  Time: 17.83 s
Mus musculus [10]
  Time: 61.3 s

## FC(F)(F)c1cccc(C2Cc3nnnn3-c3ccsc32)c1 (configuration not stated)
Mus musculus [8]
  Time: 73.63 s

## Cc1ccc(-n2c(=O)c3ccccc3n3nnnc23)cc1
Mus musculus [9]
  Time: 11.83 s

## Clc1ccc(C2Cc3nnnn3-c3ccsc32)cc1 (configuration not stated)
Mus musculus [5]
  ED50: 9.5 mg/kg
Mus musculus [7]
  ED50: 20.5 mg/kg

## NC(=O)N1c2ccccc2C=Cc2ccccc21 [CARBAMAZEPINE]
Mus musculus [11]
  ED50: 27.3 mg/kg
Mus musculus [5]
  ED50: 11.8 mg/kg

## Cc1ccccc1Cn1nnnc1-c1ccccc1C
[4]
  TD50: 500 mg/kg
Mus musculus [5]
  ED50: 12.7 mg/kg

## COc1cc2c(cc1OC)C(=O)C(CC1CCN(Cc3ccccc3)CC1)C2 (configuration not stated) [DONEPEZIL]
[12]; nih3t3
  IC50 at 24 h: 1260 nM

## COc1ccc(Oc2nc3nnnn3c3ccccc23)cc1
Mus musculus [10]
  Time: 85.2 s

## NC(=O)O[C@@H](Cn1ncnn1)c1ccccc1Cl [CENOBAMATE]
Mus musculus [13]
  ED50: 9.8 mg/kg
Mus musculus [14]
  ED50: 28.5 mg/kg

## CC1(c2ccc(F)cc2)CC(c2ccc(F)cc2)=C(C#N)/C(=C(/C#N)c2nnn[nH]2)N1 (configuration not stated)
Cholinesterase
  IC50: 38800 nM
Acetylcholinesterase [15]
  IC50: 2010 nM

## CN(C)C(=O)Oc1cccc([N+](C)(C)C)c1 [NEOSTIGMINE]
Cholinesterase
  IC50: 8410 nM
Acetylcholinesterase [15]
  IC50: 19 nM

## O=c1c2ccccc2n2nnnc2n1-c1ccccc1F
Mus musculus [9]
  Time: 14.67 s

## Fc1ccc(C(c2ccc(F)cc2)c2nnnn2CCCCN2CCC(Cc3ccccc3)CC2)cc1
[16]
  inhibition at 1 µM: 77.6%
[17]
  inhibition at 1 µM: 81%
[18]
  IC50: 58 nM
[19]
  IC50: 298 nM
[20]
  IC50: 453 nM
[21]
  inhibition at 1 µM: 92.3%

## Cc1ccccc1-n1c(C)nc2c(OCc3nnn(S(=O)(=O)c4ccc(N)cc4)n3)cccc2c1=O
Rattus norvegicus [1]
  ED50: 72.3 mg/kg
Rattus norvegicus [2]
  ED50: 4.93 mg/kg

## Cc1cccc(-n2c(=O)c3ccccc3n3nnnc23)c1
Mus musculus [9]
  Time: 16.5 s

## Cc1ccccc1-n1c(C)nc2c(OCc3nnn(Cc4ccc(-c5ccncc5)cc4)n3)cccc2c1=O
Rattus norvegicus [1]
  ED50: > 100 mg/kg
Rattus norvegicus [2]
  ED50: 12.9 mg/kg

## FC(F)(F)c1ccc(C2Cc3nnnn3-c3ccsc32)cc1 (configuration not stated)
Mus musculus [8]
  Time: 51.43 s
Mus musculus [5]
  ED50: 23.4 mg/kg
Mus musculus [7]
  ED50: 64.7 mg/kg

## Cc1ccccc1-n1c(C)nc2c(OCc3nnn(C(=O)c4ccc(N)cc4)n3)cccc2c1=O
Rattus norvegicus [1]
  ED50: 48.4 mg/kg
Rattus norvegicus [2]
  ED50: 10.9 mg/kg

## CCCCCOc1nc2nnnn2c2ccccc12
Mus musculus [10]
  Time: 112.3 s

## O=C1c2ccccc2C[C@@H]1Sc1nnnn1-c1ccc([N+](=O)[O-])cc1
Acetylcholinesterase [3]
  IC50: 6670 nM

## Cc1ccccc1-c1nn[nH]n1
[22]
  selectivity ratio: 19.7
Mus musculus [23]
  ED50: 9.6 mg/kg
[24]
  TD50: 190 mg/kg

## Clc1ccc(C(c2ccccc2)c2nnnn2CCCCN2CCC(Cc3ccccc3)CC2)cc1 (configuration not stated)
[16]
  inhibition at 1 µM: 88.9%
[17]
  inhibition at 1 µM: 58.9%
[18]
  IC50: 550 nM
[19]
  IC50: 780 nM
[20]
  IC50: 90 nM
[21]
  inhibition at 1 µM: 67.8%

## O=C1c2ccccc2C[C@@H]1Sc1nnnn1-c1cccc([N+](=O)[O-])c1
Acetylcholinesterase [3]
  IC50: 2860 nM

## O=[N+]([O-])c1cccc(/C=N/NCCCCc2nnnn2-c2ccccc2)c1
[25]
  inhibition: 98.5%
[12]; NIH/3T3 cells
  IC50 at 24 h: 51.7 µg/mL

## O=C(CCCSc1nnnn1-c1ccccc1)N/N=C/c1cccc(O)c1
[12]; NIH/3T3 cells
  IC50 at 24 h: 105000 nM
Acetylcholinesterase [6]
  IC50: 76500 nM

## Oc1cccc(/C=N/NCCCCc2nnnn2-c2ccccc2)c1
[26]
  inhibition: 51.3%

## CCCCCCOc1nc2nnnn2c2ccccc12
Mus musculus [10]
  Time: 62.2 s

## FC(F)(F)c1ccccc1C1Cc2nnnn2-c2ccsc21 (configuration not stated)
Mus musculus [8]
  Time: 68.43 s
Mus musculus [5]
  ED50: 19 mg/kg
Mus musculus [7]
  ED50: 26.2 mg/kg

## O=[N+]([O-])c1ccccc1/C=N/NCCCCc1nnnn1-c1ccccc1
[25]
  inhibition: 92%
[12]; NIH/3T3 cells
  IC50 at 24 h: 55 µg/mL

## Clc1ccccc1-c1nnn[nH]1
Mus musculus [27]
  ED50: 83.3 mg/kg

## COc1ccc(C2Cc3nnnn3-c3ccsc32)cc1 (configuration not stated)
Mus musculus [5]
  ED50: 44 mg/kg
Mus musculus [7]
  ED50: 65.5 mg/kg

## O=C1c2ccccc2C[C@@H]1Sc1nnnn1-c1ccccc1F
Acetylcholinesterase [3]
  IC50: 4040 nM

## O=C1c2ccccc2C[C@@H]1Sc1nnnn1-c1cccc(F)c1
Acetylcholinesterase [3]
  IC50: 2630 nM

## COc1ccc2c3c1O[C@H]1C[C@@H](O)C=C[C@@]31CCN(C)C2 [GALANTAMINE]
[12]; NIH/3T3 cells
  IC50 at 24 h: 7280 nM

## COc1ccccc1C1=C(C#N)/C(=C(/C#N)c2nnn[nH]2)NC(C)(c2ccccc2OC)C1 (configuration not stated)
Cholinesterase
  IC50: 290 nM
Acetylcholinesterase [15]
  IC50: 19300 nM

## Clc1ccc(Oc2nn3nnnc3c3ccccc23)cc1
[28]
  TD50 at 0.25 h: 456 mg/kg
Mus musculus [11]
  ED50: 24 mg/kg
[22]
  selectivity ratio: 67.1
Mus musculus [13]
  ED50: 6.8 mg/kg

## O=C(CCCSc1nnnn1-c1ccccc1)N/N=C/c1ccccc1[N+](=O)[O-]
Acetylcholinesterase [6]
  IC50: 54700 nM
